From PubChem BioAssay (NCI)
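Where inhibition never reached the appropriate level, the endpoint shown equals the highest concentration tested. Otherwise, values were interpolated linearly from a five-concentration, 48-hour dose response in 96-well plates. The concentration for full growth arrest is given as TGI.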

What was measured:
Assay in all cases: NCI anticancer screen, dose series, 48 h
[1] = tested on: TK-10 renal
[2] = tested on: OVCAR-3 ovarian
[3] = tested on: MCF7 breast
[4] = tested on: SW-620 colon
[5] = tested on: HCT-116 colon
[6] = tested on: PC-3 prostate
[7] = tested on: 786-0 renal
[8] = tested on: BT-549 breast
[9] = tested on: HT29 colon
[10] = tested on: CCRF-CEM leukemia
[11] = tested on: K-562 leukemia
[12] = tested on: SF-268 CNS
[13] = tested on: A549 NSCLC
[14] = tested on: SNB-19 CNS
[15] = tested on: HS 578T breast
[16] = tested on: CAKI-1 renal
[17] = tested on: HCC-2998 colon

Compound | TGI [1] [µM] | TGI [2] [µM] | TGI [3] [µM] | TGI [4] [µM] | TGI [5] [µM] | TGI [6] [µM] | TGI [7] [µM] | TGI [8] [µM] | TGI [9] [µM] | TGI [10] [µM] | TGI [11] [µM] | TGI [12] [µM] | TGI [13] [µM] | TGI [14] [µM] | TGI [15] [µM] | TGI [16] [µM] | TGI [17] [µM]
c1ccc(-c2csc3c2-n2cccc2C3N2CCCC2)cc1 (stereo not drawn) | 99.7 | > 100 | > 100 | > 100 | > 100 | > 100 | > 100 | 34.4 | > 100 | > 100 | > 100 | 78.7 | > 100 | > 100 | > 100 | > 100 | > 100
Cc1ccsc1/C=N/NC1=NCCN1 | > 100 | > 100 | > 100 | > 100 | > 100 | > 100 | > 100 | > 100 | > 100 | > 100 | > 100 | > 100 | > 100 | > 100 | > 100 | > 100 | > 100
Cc1cc(C)cc(Nc2nnc3n2S(=O)(=O)c2cc(C)c(Cl)cc2S3)c1 | 38.5 | 17.5 | 36 | 21.1 | > 100 | 10.1 | > 100 | 70.9 | > 100 | > 100 | > 100 | 31.1 | 45.1 | 49.3 | 26.9 | > 100 | 16.6
NC(Cc1ccc(O)cn1)C(=O)NC(C(=O)O)c1ccccc1 (stereo not drawn) | > 100 | > 100 | > 100 | > 100 | > 100 | > 100 | > 100 | > 100 | > 100 | > 100 | > 100 | > 100 | > 100 | > 100 | > 100 | > 100 | > 100
